Numbers after ± are expanded uncertainties.

Drawing on the NIST ThermoML archive (doi:10.1016/j.jct.2012.05.010), this text covers refractive index for four compounds.

The data set in a line: refractive index (Na D-line) (dimensionless). The following applies: 293.1 K; 101.33 kPa; Liquid; Standard Abbe refractometry.
By refractive index is commonly meant a measure of how strongly the sample bends light. For the compound `CCCc1ccccc1` [propylbenzene], the refractive index amounted to 1.4915 ± 0.0004.
Regarding `CCCCCCCCCCCC` [dodecane], the refractive index was 1.422 ± 0.0004.
On to `CCCCCCCCCCCCCC` [tetradecane], for which the refractive index amounted to 1.4289 ± 0.0004.
As for `CCCCn1cc[n+](C)c1.F[P-](F)(F)(F)(F)F` [1-butyl-3-methylimidazolium hexafluorophosphate], the figure is 1.3803 ± 0.0005.
